Data on two compounds can be found in patent US7505101B2, “Liquid crystal display” (Fujifilm Corporation, priority 2004, dated 2009).

The term logP denotes a log measure of how a compound divides between an organic and an aqueous phase. Low values mean a more hydrophilic compound, high ones a more lipophilic compound.

The structures appear in SMILES notation.

This data set can be described thus: octanol-water partition coefficient (Log P value). It counts as physicochemical. As to conditions: octanol-water distribution coefficient. The text has this: In the preparation of the cellulose acylate film according to the invention, among the aforementioned compound for suppressing an alignment of cellulose acylate in the film along the in-plane direction and the direction of film thickness thereby sufficiently reducing Rth, preferred is a compound having an octanol-water distribution coefficient (log P value) within a range of from 0 to 7. […] Also, a compound having a log P value or 0 or more has a lower hydrophilicity and thus can suppress deterioration of the water resistance of the cellulose acylate film. The log P value is more preferably within a range of from 1 to 6, and particularly preferably 1.5 to 5. The octanol-water distribution coefficient (log P value) can be measured by a flask […] method described in Japan Industrial Standards (JIS) Z7260-107 (2000). The octanol-water distribution coefficient (log P value) may also be estimated, instead of an actual measurement, by a calculational chemical method or an empirical method. […]

Take `Cc1ccc(S(=O)(=O)Nc2ccccc2)cc1` [A-19]: the lipophilicity (logP) turned out to be 2.9.

`CCCCCCCCOc1ccc(C(=O)c2ccccc2)c(O)c1` [UV-102] showed a logP of 5.6.
